In general, IC50 refers to the concentration needed to halve the response being measured. Low values mean inhibition by little substance, high ones a need for much substance.

EP4, sequence (P35408 whole entry): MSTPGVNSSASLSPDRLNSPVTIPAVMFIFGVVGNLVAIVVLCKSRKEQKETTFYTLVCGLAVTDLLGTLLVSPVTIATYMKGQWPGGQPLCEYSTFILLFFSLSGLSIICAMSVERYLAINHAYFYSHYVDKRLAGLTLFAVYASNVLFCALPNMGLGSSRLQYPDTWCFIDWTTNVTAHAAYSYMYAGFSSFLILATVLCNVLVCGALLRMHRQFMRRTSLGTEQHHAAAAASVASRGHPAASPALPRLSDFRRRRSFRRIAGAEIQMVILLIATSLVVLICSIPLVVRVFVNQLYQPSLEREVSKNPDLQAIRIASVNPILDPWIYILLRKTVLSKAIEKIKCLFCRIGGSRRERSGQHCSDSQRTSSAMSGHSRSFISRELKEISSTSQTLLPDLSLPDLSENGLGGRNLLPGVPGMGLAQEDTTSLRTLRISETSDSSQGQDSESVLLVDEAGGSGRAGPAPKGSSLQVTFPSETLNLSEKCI

The assay concerns the target EP4 (Homo sapiens, UniProt P35408). The assay can be described thus: EP4 Antagonism by CRE-PLAP Reporter Assay (SE302 cells, PGE2-stimulated). Also on record: HEK293 cells express endogenous EP4; endogenous in cells; host or cells: SE302 (HEK293 clone with CRE-PLAP reporter). To be noted: SE302 (HEK293) cells, 3 ng/mL PGE2, overnight; single or multiple assay average values. It is filed as cell-based. In outline: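 HEK293-derived SE302 cells with endogenous EP4 and CRE-driven secreted PLAP, in serum-free medium with 0.1% BSA, stimulated overnight with 3 ng/mL PGE2 plus compound. Supernatant PLAP read by luminescence (pH 11 carbonate buffer, 2 h). IC50 from % of control, normalized to DMSO with and without PGE2.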
In general terms: A reporter such as luciferase makes a cellular process visible.
`COc1cccc(CN2CCn3nc(C(F)(F)F)c(C(=O)N[C@@H](C)c4ccc(C(=O)O)cc4)c32)c1` [Compound 9, (S)-4-(1-(1-(3-methoxybenzyl)-6-(trifluoromethyl)-2,3-dihydro-1H-imidazo[1,2-b]pyrazole-7-carboxamido)ethyl)benzoic Acid] gave an IC50 of 1.41 nM. Compound `CCc1ccc(CN2CCn3nc(C(F)(F)F)c(C(=O)N[C@@H](C)c4ccc(C(=O)O)cc4)c32)cc1` [Compound 20, (S)-4-(1-(1-(4-ethylbenzyl)-6-(trifluoromethyl)-2,3-dihydro-1H-imidazo[1,2-b]pyrazole-7-carboxamido)ethyl)benzoic Acid] yielded an IC50 of 2.23 nM.

Compound `C[C@H](NC(=O)c1c(C(F)F)nn2c1N(Cc1cccc(C(F)(F)F)c1)CC2)c1ccc(C(=O)O)cc1` [Compound 94, (S)-4-(1-(6-(Difluoromethyl)-1-(3-(trifluoromethyl)benzyl)-2,3-dihydro-1H-imidazo[1,2-b]pyrazole-7-carboxamido)ethyl)benzoic Acid] displayed an IC50 of 0.343 nM. For `C[C@H](NC(=O)c1c(C(F)(F)F)nn2c1N(Cc1cccc(C(F)(F)F)c1)CC2)c1ccc(C(=O)NS(=O)(=O)c2ccc([N+](=O)[O-])cc2)cc1` [Compound 71, (S)—N-(1-(4-(((4-nitrophenyl)sulfonyl)carbamoyl)phenyl)ethyl)-6-(trifluoromethyl)-1-(3-(trifluoromethyl)benzyl)-2,3-dihydro-1H-imidazo[1,2-b]pyrazole-7-carboxamide], the IC50 came to 5.87 nM. `C[C@H](NC(=O)c1c(C(F)(F)F)nn2c1N(Cc1ccc(N(C)C)cc1)CC2)c1ccc(C(=O)O)cc1` [Compound 88, (S)-4-(1-(1-(4-(dimethylamino)benzyl)-6-(trifluoromethyl)-2,3-dihydro-1H-imidazo[1,2-b]pyrazole-7-carboxamido)ethyl)benzoic Acid]: half-maximal inhibition (IC50) required 18.5 nM. Take `C[C@H](NC(=O)c1c(C(F)(F)F)nn2c1N(Cc1ccc(Cl)cc1)CCC2)c1ccc(C(=O)O)cc1` [Compound 41, (S)-4-(1-(4-(4-chlorobenzyl)-2-(trifluoromethyl)-4,5,6,7-tetrahydropyrazolo[1,5-a]pyrimidine-3-carboxamido)ethyl)benzoic Acid]: the IC50 was 1.53 nM. With `C[C@H](NC(=O)c1c(C(F)(F)F)nn2c1N(Cc1cccc(C(F)(F)F)c1)CC2)c1ccc(C(=O)NS(=O)(=O)c2ccc(F)c(F)c2)cc1` [Compound 53, (S)—N-(1-(4-(((3,4-difluorophenyl)sulfonyl)carbamoyl)phenyl)ethyl)-6-(trifluoromethyl)-1-(3-(trifluoromethyl)benzyl)-2,3-dihydro-1H-imidazo[1,2-b]pyrazole-7-carboxamide], the IC50 amounted to 3.91 nM. Under `COC(=O)c1ccc([C@H](C)NC(=O)c2c(C(F)(F)F)nn3c2N(Cc2ccc(C(F)(F)F)cc2)CC3)cc1` [Compound 2, Methyl (S)-4-(1-(6-(trifluoromethyl)-1-(4-(trifluoromethyl)benzyl)-2,3-dihydro-1H-imidazo[1,2-b]pyrazole-7-carboxamido)ethyl)benzoate] stands 3.9 nM. Under `C=C1CCC(CN2CCn3nc(C(F)(F)F)c(C(=O)N[C@@H](C)c4ccc(C(=O)O)cc4)c32)CC1` [Compound 79, (S)-4-(1-(1-((4-methylenecyclohexyl)methyl)-6-(trifluoromethyl)-2,3-dihydro-1H-imidazo[1,2-b]pyrazole-7-carboxamido)ethyl)benzoic acid] stands 18.9 nM.

`COc1ccc(CN2CCn3nc(C(F)(F)F)c(C(=O)N[C@@H](C)c4ccc(C(=O)O)cc4)c32)cc1` [Compound 8, (S)-4-(1-(1-(4-methoxybenzyl)-6-(trifluoromethyl)-2,3-dihydro-1H-imidazo[1,2-b]pyrazole-7-carboxamido)ethyl)benzoic Acid] gave an IC50 of 8.03 nM. As for `C[C@H](NC(=O)c1c(C(F)(F)F)nn2c1N(c1ccc(C(F)(F)F)cc1)CC2)c1ccc(C(=O)O)cc1` [Compound 47, (S)-4-(1-(6-(trifluoromethyl)-1-(4-(trifluoromethyl)phenyl)-2,3-dihydro-1H-imidazo[1,2-b]pyrazole-7-carboxamido)ethyl)benzoic Acid], the IC50 turned out to be 48.9 nM.

In the case of `Cc1nn2c(c1C(=O)N[C@@H](C)c1ccc(C(=O)O)cc1)N([C@H](C)c1ccc(C(F)(F)F)cc1)CC2` [Compound 35, 4-((S)-1-(6-methyl-1-((R)-1-(4-(trifluoromethyl)phenyl)ethyl)-2,3-dihydro-1H-imidazo[1,2-b]pyrazole-7-carboxamido)ethyl)benzoic Acid], the IC50 worked out at 11.1 nM. In turn, `Cc1cc([C@H](C)NC(=O)c2c(C(F)(F)F)nn3c2N(Cc2ccc(C(F)(F)F)cc2)CC3)ccc1-c1nn[nH]n1` [Compound 58, (S)—N-(1-(3-methyl-4-(2H-tetrazol-5-yl)phenyl)ethyl)-6-(trifluoromethyl)-1-(4-(trifluoromethyl)benzyl)-2,3-dihydro-1H-imidazo[1,2-b]pyrazole-7-carboxamide] registered an IC50 of 4.71 nM.

As to `C[C@H](NC(=O)c1c(C(F)(F)F)nn2c1N(Cc1ccc(C(F)(F)F)cc1)CC2)c1ccc(-c2nn[nH]n2)cc1` [Compound 37, (S)—N-(1-(4-(2H-tetrazol-5-yl)phenyl)ethyl)-6-(trifluoromethyl)-1-(4-(trifluoromethyl)benzyl)-2,3-dihydro-1H-imidazo[1,2-b]pyrazole-7-carboxamide], the IC50 was 0.45 nM. `C[C@H](NC(=O)c1c(C(F)(F)F)nn2c1N(Cc1cccc(Cl)c1)CC2)c1ccc(C(=O)O)cc1` [Compound 12, (S)-4-(1-(1-(3-chlorobenzyl)-6-(trifluoromethyl)-2,3-dihydro-1H-imidazo[1,2-b]pyrazole-7-carboxamido)ethyl)benzoic Acid]: it took 2.23 nM to reach half-maximal inhibition (IC50).

Compound `C[C@H](NC(=O)c1c(C(F)(F)F)nn2c1N(Cc1ccc(C(F)(F)F)cc1)CC2)c1ccc(C(=O)O)cc1F` [Compound 22, (S)-3-fluoro-4-(1-(6-(trifluoromethyl)-1-(4-(trifluoromethyl)benzyl)-2,3-dihydro-1H-imidazo[1,2-b]pyrazole-7-carboxamido)ethyl)benzoic Acid] came in with an IC50 of 1.91 nM. `C[C@H](NC(=O)c1c(C(F)(F)F)nn2c1N(Cc1ccc(OC(F)(F)F)cc1)CC2)c1ccc(C(=O)O)cc1` [Compound 10, (S)-4-(1-(1-(4-(trifluoromethoxy)benzyl)-6-(trifluoromethyl)-2,3-dihydro-1H-imidazo[1,2-b]pyrazole-7-carboxamido)ethyl)benzoic Acid] returned an IC50 of 12.5 nM. As for `C[C@H](NC(=O)c1c(C(F)(F)F)nn2c1N(Cc1cccc(OC(F)(F)F)c1)CC2)c1ccc(C(=O)O)cc1` [Compound 11, (S)-4-(1-(1-(3-(trifluoromethoxy)benzyl)-6-(trifluoromethyl)-2,3-dihydro-1H-imidazo[1,2-b]pyrazole-7-carboxamido)ethyl)benzoic Acid], it took 0.41 nM to reach half-maximal inhibition (IC50).

For the compound `C[C@H](NC(=O)c1c(C(F)(F)F)nn2c1N(Cc1ccccc1F)CC2)c1ccc(C(=O)O)cc1` [Compound 16, (S)-4-(1-(1-(2-fluorobenzyl)-6-(trifluoromethyl)-2,3-dihydro-1H-imidazo[1,2-b]pyrazole-7-carboxamido)ethyl)benzoic Acid], the IC50 is 1.4 nM. As to `C[C@H](NC(=O)c1c(C(F)(F)F)nn2c1[N+]([O-])(Cc1cccc(I)c1)CC2)c1ccc(C(=O)O)cc1` (stereo partly drawn) [Compound 76, 7-(((S)-1-(4-carboxyphenyl)ethyl)carbamoyl)-1-(3-iodobenzyl)-6-(trifluoromethyl)-2,3-dihydro-1H-imidazo[1,2-b]pyrazole 1-oxide], the IC50 was determined as 4.12 nM. For `C[C@H](NC(=O)c1c(C(F)(F)F)nn2c1N(Cc1cccc(CO)c1)CC2)c1ccc(C(=O)O)cc1` [Compound 64, (S)-4-(1-(1-(3-(hydroxymethyl)benzyl)-6-(trifluoromethyl)-2,3-dihydro-1H-imidazo[1,2-b]pyrazole-7-carboxamido)ethyl)benzoic acid], the IC50 was determined as 0.82 nM.

For `Cc1nn2c(c1C(=O)NC1(c3ccc(C(=O)O)cc3)CC1)N([C@H](C)c1ccc(C(F)(F)F)cc1)CC2` [Compound 34, (R)-4-(1-(6-methyl-1-(1-(4-(trifluoromethyl)phenyl)ethyl)-2,3-dihydro-1H-imidazo[1,2-b]pyrazole-7-carboxamido)cyclopropyl)benzoic Acid], the IC50 turned out to be 9.19 nM.

`C[C@H](NC(=O)c1c(C(F)(F)F)nn2c1N(Cc1cc(O)cc(C(F)(F)F)c1)CC2)c1ccc(C(=O)O)cc1` [Compound 77, (S)-4-(1-(1-(3-hydroxy-5-(trifluoromethyl)benzyl)-6-(trifluoromethyl)-2,3-dihydro-1H-imidazo[1,2-b]pyrazole-7-carboxamido)ethyl)benzoic Acid] yielded an IC50 of 0.182 nM. The compound `C[C@H](NC(=O)c1c(CF)nn2c1N(Cc1cccc(C(F)(F)F)c1)CC2)c1ccc(C(=O)O)cc1` [Compound 91, (S)-4-(1-(6-(Fluoromethyl)-1-(3-(trifluoromethyl)benzyl)-2,3-dihydro-1H-imidazo[1,2-b]pyrazole-7-carboxamido)ethyl)benzoic Acid] returned an IC50 of 0.636 nM.

For the compound `C[C@H](NC(=O)c1c(C(F)(F)F)nn2c1N(CC1CCC(CF)CC1)CC2)c1ccc(C(=O)O)cc1` (stereo partly drawn) [Compound 78, (S)-4-(1-(1-((4-(fluoromethyl)cyclohexyl)methyl)-6-(trifluoromethyl)-2,3-dihydro-1H-imidazo[1,2-b]pyrazole-7-carboxamido)ethyl)benzoic acid], the midpoint of inhibition, the IC50, lay at 63 nM. `C[C@H](NC(=O)c1c(C(F)(F)F)nn2c1N(Cc1cccc(OCCF)c1)CC2)c1ccc(C(=O)O)cc1` [Compound 75, (S)-4-(1-(1-(3-(2-fluoroethoxy)benzyl)-6-(trifluoromethyl)-2,3-dihydro-1H-imidazo[1,2-b]pyrazole-7-carboxamido)ethyl)benzoic Acid] returned an IC50 of 4.66 nM.

The values above are taken from patent US11434246B2, “EP4 antagonists” (Eisai R&D Management Co., Ltd., priority 2015, dated 2022).
